Experimental data: US11259522B2, “Control of resistant pests” (priority 2017, dated 2022)
In brackets after ≈: the same amount, converted by molar mass.

Tests used:
[1] = system: Halotydeus destructor resistant population (synthetic pyrethroid resistance); assay: Coated plastic vial bioassay, redlegged earth mite, resistant population; type: in vivo
Procedure: The test compositions included 0.1% Tween 20 non-ionic surfactant to aid the spread of insecticides when coating plastic vials. This concentration of Tween 20 has been previously shown to have no toxic effect on H. destructor. For each insecticide concentration tested, 3, 10, 30, 100, 300, 1000, 3000 and 10000 mg a.i./L (ppm), approximately 10 mL of solution was poured into a 15 mL plastic vial and swirled to ensure a complete coating, with excess liquid removed. Eight vials were coated per concentration and were left to dry overnight. Control vials were treated in the same way but with water used in place of test composition.
Eight susceptible H. destructor mites were then placed into each vial along with a leaf of common vetch (Vicia sativa). The leaf was added to provide food and increase humidity. Vials were then sealed with a lid and placed at 18° C. After 4, 6, 8 and 24 hours of exposure, the mites were scored as alive (moving freely), incapacitated (inhibited movement), or dead (no movement over a 5 second period).
The resistant population of H. destructor was collected from a lucerne paddock in the Upper South-East district of South Australia, where resistance to synthetic pyrethroids was confirmed in late 2016.
The data produced in the assays were assessed for concentrations that caused 50, 90 and 99% mortality (lethal concentration, LC), together with 95% confidence intervals (CIs) and were estimated from observations of mortality after 24 hours exposure using a binomial logistic regression (Robertson & Preisler, 1992, Pesticide Bioassays with Arthropods. CRC: Boca Raton; Venables & Ripley, 2002, Modern Applied Statistics with S. Springer: New York). Population differences were tested by comparing the change in model deviance with and without the population factor (different regression intercepts for each population). Differences in regression slopes between populations were tested by comparing the change in model deviance with and without the population×dose interaction term. The resistance ratio of the insecticide-resistant population was estimated as the ratio of its LC50 to that of the susceptible population. All analyses were performed using R 3.3. (R Core Team 2017, R: A language and environment for statistical computing. R Foundation for Statistical Computing, Vienna, Austria. http://www.R-project.org).

[2] = system: Rhipicephalus microplus larvae, susceptible non-resistant field strain (NRFS); assay: Larval packet test (LPT), cattle tick larvae, susceptible strain; type: in vivo; details: for LC50 (ppm) / LC99 (ppm): NRFS, Probit analysis; for mortality at 10000 ppm: 10,000 ppm; for mortality at 2.5 ppm: 2.500 ppm; for mortality at 5000 ppm: 5,000 ppm
Procedure: The larval packet test (LPT) is a modification of that first described by Stone and Haydock (1962, Bull. Entomol. Res., 563-578, http://dx.doi.org/10.1017/5000748530004832X) for evaluation of field resistance in cattle tick (Rhipicephalus microplus) larvae.
The first LPT assay was conducted to identify the potential range of flavesone acaricidal activity against larvae of a susceptible non-resistant field strain (NRFS) of R. microplus as a reference strain using a wide range of concentrations (1 in 10 in series).
The test compound, flavesone, 6-isobutyryl-2,2,4,4-tetramethylcyclohexane-1,3,5-trione, 96.7%, was used. As its volatility/evaporative properties were unknown, the LPT method was modified to incorporate the use of suitably-sized polyethylene plastic sheets to envelop the larval packets, minimizing exposure of the test active to the atmosphere.
In addition, the use of the solvent trichloroethylene (TCE) was removed to avoid the time required for evaporation in the preparation of test papers. The test solutions were prepared in olive oil only at the diluent and the papers immediately enveloped in the plastic sheets and sealed with bulldog clips to minimize evaporation.
A stock solution with a concentration of 100,000 ppm (10%) flavesone was prepared in olive oil as the diluent (1.035 mL flavesone (96.7%) to 8.965 mL olive oil) and then further diluted 1 in 10 in series to also give 10,000 ppm, 1,000 ppm, 100 ppm, 10 ppm and 1 ppm concentration. The negative control was olive oil only. No positive control was included in this experiment. Due to the viscosity of the olive oil, all solutions were prepared using reverse pipetting technique.
Filter papers (75 mm×85 mm Whatman® No. 541), with grid patterns, were impregnated on ½ of the paper with 225 μL of each solution using a micro-pipette and immediately folded in half, enveloped in polyethylene plastic and sealed with 3 bulldog clips. The impregnated papers were kept at room temperature on aluminium trays for a minimum of 60 minutes to allow for dispersal across the grid pattern of the paper prior to aliquoting of larvae. The packets were prepared in duplicate for each concentration, including the negative control.
An 8 dram vial containing approximately 20,000 hatched 7-21 day old NRFS larvae (about 1 g eggs) was opened and set up on a moated tray with a small amount of detergenated water, about 15 to 30 minute before use. Only larvae that migrated to the top of the vial were used in the assay.
Aliquots of approximately 100 larvae were placed into each packet using plastic disposable forceps and the packets resealed and incubated and 27° C. and 85% relative humidity (RH).
After 24 hours, the larval packets were opened and the numbers of dead and live larvae were counted under a magnification lamp. Percentage mortality was calculated and, where applicable, corrected using Abbott's Formula (Abbott, 1925, J. Economic Entomology, 18:256-257): […]
LC50 and LC99 values were determined by Probit mortality vs log concentration analysis. Probit values were derived from “Transformation of Percentages to Probit's Tables” published by Fisher R. A. and Yates F. (1938).
The LPT Assay of Example 1 was repeated using a narrow range of concentrations, 1 in 2 series, of flavesone to determine LC50 and LC99 values against the susceptible NRFS and the multi-resistant Tiaro reference strain.
The stock solution of flavesone (100,000 ppm) was diluted 1 in 10 with olive oil (1 mL to 9 mL diluent) to give 10,000 ppm, which was then further diluted 1 in 2 in series (5 mL to 5 mL diluent) to give 5,000 ppm, 2,500 ppm, 1,250 ppm, 625 ppm, 312.5 ppm and 156.25 ppm concentrations. […]

[3] = Resistant population, 24 hours exposure
[4] = Rhipicephalus microplus, 24 h, Example 2
[5] = Rhipicephalus microplus, 24 h, Example 3
[6] = Rhipicephalus microplus, 48 h, Example 4

For `CC(C)C(=O)C1C(=O)C(C)(C)C(=O)C(C)(C)C1=O` [Flavesone, 1-isobutyroyl-3,3,5,5-tetramethylcyclohexane-2,4,6-trione], the LC50 ([1]; Halotydeus destructor, 24 h, Resistant population, 24 hours exposure, read-out: LC50 (mg a.i./L)) was 34.2 µg/mL (≈ 136 µM), the “LC50 (mg a.i./L)” value [1, 3] was 34.22 mg a.i./L and the “LC90 (mg a.i./L)” value [1, 3] was 117.89 mg a.i./L. The “LC99 (mg a.i./L)” value [1, 3] was 454.76 mg a.i./L, the “concentration causing 50% mortality” value ([1]; both susceptible and insecticide-resistant populations, 24 hours) was 34−40 mg a.i./L and the “LC50 (ppm)” value ([2]; Example 1, 24 hours) was 171 ppm. For the same compound, the “LC99 (ppm)” value ([2]; Example 1, 24 hours) was 3346 ppm, the “LC50 (ppm)” value ([2]; Example 2, 24 hours) was 690 ppm and the “LC99 (ppm)” value ([2]; Example 2, 24 hours) was 1109 ppm. For the same compound, the “LC50 (ppm)” value ([2]; Example 3, 24 hours) was 610 ppm, the “LC99 (ppm)” value ([2]; Example 3, 24 hours) was 1050 ppm and the “LC50 (ppm)” value ([2]; Example 4, 48 hours) was 526 ppm. For the same compound, the “LC99 (ppm)” value ([2]; Example 4, 48 hours) was 923 ppm, the mortality at 1 ppm ([2]; Rhipicephalus microplus, 24 h, Example 1, 1 ppm) was 0% and the mortality at 10 ppm ([2]; Rhipicephalus microplus, 24 h, Example 1, 10 ppm) was 0.62%. For the same compound, the mortality at 100 ppm ([2]; Rhipicephalus microplus, 24 h, Example 1, 100 ppm) was 1.82%, the mortality at 1000 ppm ([2]; Rhipicephalus microplus, 24 h, Example 1, 1,000 ppm) was 97% and the mortality at 10000 ppm ([2]; Rhipicephalus microplus, 24 h, Example 1) was 100%. It also gave a mortality at 100000 ppm ([2]; Rhipicephalus microplus, 24 h, Example 1, 100,000 ppm) of 100%, a mortality at 2.5 ppm [2, 4] of 100% and a mortality at 156.25 ppm ([2]; Rhipicephalus microplus, 24 h, Example 2, 156.25 ppm) of 0%. For the same compound, the mortality at 312.5 ppm [2, 4] was 0%, the mortality at 625 ppm [2, 4] was 11.8% and the mortality at 1250 ppm ([2]; Rhipicephalus microplus, 24 h, Example 2, 1,250 ppm) was 100%. The mortality at 5000 ppm [2, 4] was 100%, the mortality at 10000 ppm [2, 4] was 100% and the mortality at 2.5 ppm [2, 5] was 100%. For the same compound, the mortality at 312.5 ppm [2, 5] was 1.28%, the mortality at 625 ppm [2, 5] was 11.8% and the mortality at 1250 ppm ([2]; Rhipicephalus microplus, 24 h, Example 3, 1,250 ppm) was 100%. It also gave a mortality at 5000 ppm [2, 5] of 100%, a mortality at 312.5 ppm [2, 6] of 2.17% and a mortality at 625 ppm [2, 6] of 66.8%. It also gave a mortality at 1250 ppm ([2]; Rhipicephalus microplus, 48 h, Example 4, 1250 ppm) of 100%.
